Paper PMC7138307 (PLoS ONE, 2020)

Experiments:
Experiment in all cases: Ex vivo KiNativ ATP/ADP probe competition in mouse cortical brain lysates
Type in all cases: binding
CaMK1a = target: T1, CaMK1a (Mus musculus, UniProt Q91YS8)
T1 construct: from tissue; host or cells: mouse cortical brain lysate

FES = target: T2, FES (Mus musculus, UniProt P16879); settings: LRADNTPVAVKSCR, Lys1
T2 construct: homogenized brain lysates were labeled with Desthiobiotin-ADP-acyl phosphate probe; from tissue; host or cells: mouse cortical brain lysate
T2 sequence (P16879 whole entry): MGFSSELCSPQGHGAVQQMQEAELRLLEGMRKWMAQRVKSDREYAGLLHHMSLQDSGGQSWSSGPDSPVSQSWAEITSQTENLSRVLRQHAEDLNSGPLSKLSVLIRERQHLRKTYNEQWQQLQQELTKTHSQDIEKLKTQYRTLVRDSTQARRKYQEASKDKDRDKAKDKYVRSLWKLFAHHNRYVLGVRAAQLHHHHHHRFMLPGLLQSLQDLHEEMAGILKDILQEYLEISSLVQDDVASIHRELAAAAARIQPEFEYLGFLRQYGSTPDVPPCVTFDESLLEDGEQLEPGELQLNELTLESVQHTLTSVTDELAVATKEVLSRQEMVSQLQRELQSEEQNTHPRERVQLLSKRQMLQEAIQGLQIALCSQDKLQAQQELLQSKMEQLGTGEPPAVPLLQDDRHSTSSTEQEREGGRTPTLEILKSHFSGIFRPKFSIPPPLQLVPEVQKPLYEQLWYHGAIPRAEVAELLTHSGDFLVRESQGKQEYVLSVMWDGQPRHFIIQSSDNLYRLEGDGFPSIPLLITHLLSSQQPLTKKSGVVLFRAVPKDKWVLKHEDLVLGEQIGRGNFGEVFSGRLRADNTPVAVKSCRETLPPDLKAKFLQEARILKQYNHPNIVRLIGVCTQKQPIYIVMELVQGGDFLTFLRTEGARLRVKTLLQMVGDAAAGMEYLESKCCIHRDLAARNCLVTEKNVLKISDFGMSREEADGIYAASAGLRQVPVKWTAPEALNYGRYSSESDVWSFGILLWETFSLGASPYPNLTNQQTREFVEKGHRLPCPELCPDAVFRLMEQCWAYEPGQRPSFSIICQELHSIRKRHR

MAP4K5 = target: T3, MAP4K5 (Mus musculus, UniProt Q8BPM2); settings: NVHTGELAAVKIIK, Lys1
T3 construct: from tissue; host or cells: mouse cortical brain lysate
T3 sequence (Q8BPM2 whole entry): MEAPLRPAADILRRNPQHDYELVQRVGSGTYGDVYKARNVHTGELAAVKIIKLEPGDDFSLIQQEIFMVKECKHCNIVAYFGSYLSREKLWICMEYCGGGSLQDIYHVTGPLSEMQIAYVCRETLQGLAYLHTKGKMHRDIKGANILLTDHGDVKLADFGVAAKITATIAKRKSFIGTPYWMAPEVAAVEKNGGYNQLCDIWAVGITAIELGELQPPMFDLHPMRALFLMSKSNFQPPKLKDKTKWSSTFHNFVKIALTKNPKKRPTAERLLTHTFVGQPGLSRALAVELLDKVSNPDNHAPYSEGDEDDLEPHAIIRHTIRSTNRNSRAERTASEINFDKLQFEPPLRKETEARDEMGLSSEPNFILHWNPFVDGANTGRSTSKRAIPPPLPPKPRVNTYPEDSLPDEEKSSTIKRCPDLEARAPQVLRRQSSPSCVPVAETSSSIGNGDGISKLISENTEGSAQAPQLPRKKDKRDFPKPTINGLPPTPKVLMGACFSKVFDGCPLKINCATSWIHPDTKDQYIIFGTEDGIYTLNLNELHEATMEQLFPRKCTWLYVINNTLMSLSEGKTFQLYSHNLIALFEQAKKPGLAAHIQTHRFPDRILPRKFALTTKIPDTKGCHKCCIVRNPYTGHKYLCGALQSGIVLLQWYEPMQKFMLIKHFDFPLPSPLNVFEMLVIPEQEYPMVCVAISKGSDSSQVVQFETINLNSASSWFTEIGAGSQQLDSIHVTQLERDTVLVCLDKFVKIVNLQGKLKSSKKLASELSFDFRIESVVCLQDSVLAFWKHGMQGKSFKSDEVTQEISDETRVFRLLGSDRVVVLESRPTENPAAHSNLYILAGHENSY

PIP5K3 = target: T4, PIP5K3 (Mus musculus, UniProt Q9Z1T6); settings: GGKSGAAFYATEDDRFILK, labeling site ATP
T4 construct: homogenized brain lysates were labeled with Desthiobiotin-ADP-acyl phosphate probe; from tissue; host or cells: mouse cortical brain lysate
T4 sequence (Q9Z1T6 whole entry): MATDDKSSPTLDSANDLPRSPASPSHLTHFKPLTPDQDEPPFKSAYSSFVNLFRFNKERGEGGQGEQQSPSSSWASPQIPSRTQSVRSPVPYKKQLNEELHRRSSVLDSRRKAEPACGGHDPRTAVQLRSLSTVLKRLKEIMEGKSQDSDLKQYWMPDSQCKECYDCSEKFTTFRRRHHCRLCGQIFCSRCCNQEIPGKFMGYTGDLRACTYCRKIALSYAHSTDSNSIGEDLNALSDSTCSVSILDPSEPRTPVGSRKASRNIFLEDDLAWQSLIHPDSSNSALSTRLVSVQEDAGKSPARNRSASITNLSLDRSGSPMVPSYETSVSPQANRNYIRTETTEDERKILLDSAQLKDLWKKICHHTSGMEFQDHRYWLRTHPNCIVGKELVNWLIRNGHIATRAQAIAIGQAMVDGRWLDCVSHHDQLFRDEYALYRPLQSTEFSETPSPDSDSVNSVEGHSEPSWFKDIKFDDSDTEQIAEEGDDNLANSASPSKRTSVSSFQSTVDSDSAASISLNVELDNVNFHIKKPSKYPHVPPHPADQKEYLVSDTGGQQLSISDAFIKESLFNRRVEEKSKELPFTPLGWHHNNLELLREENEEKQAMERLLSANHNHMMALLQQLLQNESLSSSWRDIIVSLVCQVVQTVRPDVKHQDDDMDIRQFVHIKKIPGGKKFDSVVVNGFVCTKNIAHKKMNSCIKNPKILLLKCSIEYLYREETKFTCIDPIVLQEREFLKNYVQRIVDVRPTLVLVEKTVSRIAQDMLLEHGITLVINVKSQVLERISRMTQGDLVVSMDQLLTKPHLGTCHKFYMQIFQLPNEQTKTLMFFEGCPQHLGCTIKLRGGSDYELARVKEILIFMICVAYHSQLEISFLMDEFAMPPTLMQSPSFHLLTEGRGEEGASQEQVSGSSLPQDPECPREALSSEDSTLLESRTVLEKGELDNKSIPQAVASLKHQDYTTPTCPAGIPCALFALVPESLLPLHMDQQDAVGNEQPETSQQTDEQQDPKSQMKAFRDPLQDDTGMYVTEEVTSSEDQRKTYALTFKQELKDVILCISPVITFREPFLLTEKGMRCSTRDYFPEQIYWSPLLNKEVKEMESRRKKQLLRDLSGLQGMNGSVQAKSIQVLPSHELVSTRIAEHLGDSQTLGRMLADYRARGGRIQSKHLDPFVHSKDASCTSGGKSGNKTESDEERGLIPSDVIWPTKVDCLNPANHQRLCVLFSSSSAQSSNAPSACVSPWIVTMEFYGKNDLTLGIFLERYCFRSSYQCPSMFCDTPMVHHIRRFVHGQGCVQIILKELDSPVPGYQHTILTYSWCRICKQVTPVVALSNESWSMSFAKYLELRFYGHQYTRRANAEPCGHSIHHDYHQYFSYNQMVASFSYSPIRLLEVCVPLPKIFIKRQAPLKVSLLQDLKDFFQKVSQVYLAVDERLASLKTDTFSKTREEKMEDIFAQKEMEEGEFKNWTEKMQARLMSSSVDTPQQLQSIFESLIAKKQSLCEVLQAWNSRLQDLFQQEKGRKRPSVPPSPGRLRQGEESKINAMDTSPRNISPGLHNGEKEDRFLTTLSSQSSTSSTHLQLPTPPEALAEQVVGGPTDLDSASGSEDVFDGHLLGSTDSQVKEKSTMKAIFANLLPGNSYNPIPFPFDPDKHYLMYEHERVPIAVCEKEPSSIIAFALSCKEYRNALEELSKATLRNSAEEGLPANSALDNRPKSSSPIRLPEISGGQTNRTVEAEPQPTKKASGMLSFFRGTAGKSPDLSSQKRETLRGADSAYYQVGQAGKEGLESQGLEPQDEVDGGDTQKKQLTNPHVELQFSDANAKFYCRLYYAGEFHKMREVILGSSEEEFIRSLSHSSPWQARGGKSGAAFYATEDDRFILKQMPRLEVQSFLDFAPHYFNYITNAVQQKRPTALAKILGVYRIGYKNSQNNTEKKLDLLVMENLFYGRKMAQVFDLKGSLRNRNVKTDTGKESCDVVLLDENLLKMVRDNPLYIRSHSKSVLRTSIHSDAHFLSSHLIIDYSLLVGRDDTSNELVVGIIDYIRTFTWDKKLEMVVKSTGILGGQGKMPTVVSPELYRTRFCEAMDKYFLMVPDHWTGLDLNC

TAO1 = target: T5, TAO1 (Mus musculus, UniProt Q5F2E8); settings: TNEVVAIKK; Lys1; ADP probe
T5 construct: from tissue; host or cells: mouse cortical brain lysate
T5 sequence (Q5F2E8 1-1001): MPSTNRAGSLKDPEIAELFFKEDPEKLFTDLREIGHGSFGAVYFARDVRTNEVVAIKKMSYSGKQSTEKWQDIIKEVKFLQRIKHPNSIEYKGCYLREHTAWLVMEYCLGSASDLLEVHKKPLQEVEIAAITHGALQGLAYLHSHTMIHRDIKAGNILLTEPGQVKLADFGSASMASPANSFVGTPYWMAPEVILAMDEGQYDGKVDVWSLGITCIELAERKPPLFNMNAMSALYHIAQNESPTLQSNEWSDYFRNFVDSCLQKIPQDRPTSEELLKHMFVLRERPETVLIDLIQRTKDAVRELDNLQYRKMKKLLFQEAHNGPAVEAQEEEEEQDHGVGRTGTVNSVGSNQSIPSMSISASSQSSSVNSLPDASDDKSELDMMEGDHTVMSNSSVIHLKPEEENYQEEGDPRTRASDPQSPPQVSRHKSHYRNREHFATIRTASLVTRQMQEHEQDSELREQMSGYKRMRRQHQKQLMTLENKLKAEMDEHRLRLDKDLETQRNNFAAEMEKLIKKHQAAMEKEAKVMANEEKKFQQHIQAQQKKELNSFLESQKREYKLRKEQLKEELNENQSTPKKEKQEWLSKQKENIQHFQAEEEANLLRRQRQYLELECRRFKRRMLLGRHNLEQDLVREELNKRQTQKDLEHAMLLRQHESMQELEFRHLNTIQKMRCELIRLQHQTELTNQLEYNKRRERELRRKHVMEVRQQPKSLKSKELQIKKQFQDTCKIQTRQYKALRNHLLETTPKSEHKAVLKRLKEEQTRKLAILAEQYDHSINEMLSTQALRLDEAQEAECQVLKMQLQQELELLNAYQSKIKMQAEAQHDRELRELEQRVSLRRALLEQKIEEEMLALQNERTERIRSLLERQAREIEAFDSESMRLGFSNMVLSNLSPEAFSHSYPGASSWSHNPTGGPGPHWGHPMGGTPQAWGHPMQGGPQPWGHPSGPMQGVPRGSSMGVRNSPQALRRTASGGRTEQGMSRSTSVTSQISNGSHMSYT

TAO1, TAO3 = settings: DIKAGNILLTEPGQVK, Lys2
TAO2 = target: T6, TAO2 (Mus musculus, UniProt Q6ZQ29)
T6 construct: from tissue; host or cells: mouse cortical brain lysate
T6 sequence (Q6ZQ29 1-1240): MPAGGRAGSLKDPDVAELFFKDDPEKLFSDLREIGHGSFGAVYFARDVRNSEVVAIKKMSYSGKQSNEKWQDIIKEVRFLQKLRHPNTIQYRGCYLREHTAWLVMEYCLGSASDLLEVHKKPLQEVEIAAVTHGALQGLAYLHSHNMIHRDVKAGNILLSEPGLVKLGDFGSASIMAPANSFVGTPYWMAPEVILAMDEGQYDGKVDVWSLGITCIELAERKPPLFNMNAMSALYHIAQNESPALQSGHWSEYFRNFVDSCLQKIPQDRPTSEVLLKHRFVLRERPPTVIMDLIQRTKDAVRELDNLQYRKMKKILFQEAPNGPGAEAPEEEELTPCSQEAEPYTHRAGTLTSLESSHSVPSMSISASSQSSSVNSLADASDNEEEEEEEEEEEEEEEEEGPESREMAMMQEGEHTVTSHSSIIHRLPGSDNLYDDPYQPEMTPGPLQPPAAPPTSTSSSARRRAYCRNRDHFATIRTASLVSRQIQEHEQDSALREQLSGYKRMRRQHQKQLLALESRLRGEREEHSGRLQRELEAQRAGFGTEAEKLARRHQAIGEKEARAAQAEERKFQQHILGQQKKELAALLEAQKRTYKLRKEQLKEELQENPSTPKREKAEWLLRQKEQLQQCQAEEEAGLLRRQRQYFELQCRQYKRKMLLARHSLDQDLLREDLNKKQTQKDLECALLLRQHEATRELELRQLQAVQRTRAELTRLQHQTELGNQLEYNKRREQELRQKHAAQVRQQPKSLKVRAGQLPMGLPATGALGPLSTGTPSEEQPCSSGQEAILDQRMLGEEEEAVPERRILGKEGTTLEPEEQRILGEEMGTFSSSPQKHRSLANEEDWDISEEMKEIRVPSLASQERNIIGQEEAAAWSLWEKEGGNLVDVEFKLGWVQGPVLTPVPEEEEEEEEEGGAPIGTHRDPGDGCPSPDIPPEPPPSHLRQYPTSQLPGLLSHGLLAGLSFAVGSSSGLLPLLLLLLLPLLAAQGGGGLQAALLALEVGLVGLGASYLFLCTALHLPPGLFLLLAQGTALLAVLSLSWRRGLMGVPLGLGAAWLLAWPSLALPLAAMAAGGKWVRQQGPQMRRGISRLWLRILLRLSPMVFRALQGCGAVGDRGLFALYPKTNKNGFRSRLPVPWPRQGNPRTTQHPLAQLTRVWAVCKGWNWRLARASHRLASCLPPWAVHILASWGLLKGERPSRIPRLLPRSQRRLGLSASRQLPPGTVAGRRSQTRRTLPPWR

T1 sequence (Q91YS8 whole entry): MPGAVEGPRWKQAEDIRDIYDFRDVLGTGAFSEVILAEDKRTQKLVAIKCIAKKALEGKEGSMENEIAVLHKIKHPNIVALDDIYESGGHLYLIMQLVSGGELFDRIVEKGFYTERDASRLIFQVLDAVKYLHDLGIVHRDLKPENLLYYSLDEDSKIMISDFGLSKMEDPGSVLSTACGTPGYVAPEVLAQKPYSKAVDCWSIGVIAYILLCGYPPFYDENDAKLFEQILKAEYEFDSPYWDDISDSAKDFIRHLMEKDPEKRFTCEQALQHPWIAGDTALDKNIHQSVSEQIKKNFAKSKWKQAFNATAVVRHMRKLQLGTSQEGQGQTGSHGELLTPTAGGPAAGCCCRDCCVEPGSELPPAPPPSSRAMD

## CCC(C)(O)C#Cc1cc2c(ccn2-c2ccnc(N)n2)cn1 (stereo not shown) [BIIB-TTBK1i]
CaMK1a; DLKPENLLYYSLDEDSK, Lys2, ADP probe
  Percent Inhibition at 1μM: 64.7%
CaMK1a; DLKPENLLYYSLDEDSK, Lys2, ATP probe
  Percent Inhibition at 1μM: 63.8%
CaMK1a; LVAIKCIAK, Lys1, ADP probe
  Percent Inhibition at 1μM: 69.3%
CaMK1a; LVAIKCIAK, Lys1, ATP probe
  Percent Inhibition at 1μM: 69.2%
FES; ADP probe
  Percent Inhibition at 1μM: 79.8%
FES; ATP probe
  Percent Inhibition at 1μM: 61.2%
MAP4K5; ADP probe
  Percent Inhibition at 1μM: 69.7%
MAP4K5; ATP probe
  Percent Inhibition at 1μM: 58.7%
PIP5K3; ADP probe
  Percent Inhibition at 1μM: 90.2%
PIP5K3; ATP probe
  Percent Inhibition at 1μM: 95.9%
TAO1
  Percent Inhibition at 1μM: 75.9%
TAO1, TAO3; ADP probe
  Percent Inhibition at 1μM: 66.8%
TAO1, TAO3; ATP probe
  Percent Inhibition at 1μM: 69.5%
TAO2; DVKAGNILLSEPGLVK, Lys2, ADP probe
  Percent Inhibition at 1μM: 82.6%
TAO2; DVKAGNILLSEPGLVK, Lys2, ATP probe
  Percent Inhibition at 1μM: 93.2%
TAO2; NSEVVAIKK, Lys1, ADP probe
  Percent Inhibition at 1μM: 86.4%
